Reference: patent US6090828A, “5-aryleheteroarylalkyl-1,3,5-trisubstituted-1,2,4-triazole compounds for treatment of circulatory disorders” (priority 1997, dated 2000)
Like-named read-outs stand apart in the source and are kept apart here.

Assays:
[1] = biological target: smooth muscle angiotensin II receptor; experiment: Assay A: Angiotensin II Binding Activity; details: 50% displacement of specifically bound 125I-AII; rat uterine membranes; pH 7.5; 25° C., 60 min
Method: Compounds of the invention were tested for ability to bind to the smooth muscle angiotensin II receptor using a rat uterine membrane preparation. […] Rat uterine membranes were prepared from fresh tissue. All procedures were carried out at 4° C. Uteri were stripped of fat and homogenized in phosphate-buffered saline at pH 7.4 containing 5 mM EDTA. The homogenate was centrifuged at 1500×g for 20 min., and the supernatant was recentrifuged at 100,000×g for 60 min. The pellet was resuspended in buffer consisting of 2 mM EDTA and 50 mM Tris-HCl (pH 7.5) to a final protein concentration of 4 mg/ml. […] The reaction was initiated by the addition of membrane protein and the mixture was incubated at 25° C. for 60 min. The incubation was terminated with ice-cold 50 mM Tris-HCl (pH 7.5) and the mixture was filtered to separate membrane-bound labelled peptide from the free ligand. The incubation tube and filter were washed with ice-cold buffer. Filters were assayed for radioactivity in a Micromedic gamma counter. Nonspecific binding was defined as binding in the presence of 10 μM of unlabelled AII. Specific binding was calculated as total binding minus nonspecific binding. […] Binding data were analyzed by a nonlinear least-squares curve fitting program.

rabbit aortic rings = biological target: T1, rabbit aortic rings (Oryctolagus cuniculus, UniProt P34976); experiment: Assay B: In Vitro Vascular Smooth Muscle Response for AII; design: species or system rabbit (male New Zealand white); details: rabbit aorta rings, two rabbits per antagonist, antagonist 10^-5 M, 5 minutes, AII contraction, Schild
T1 construct: The thoracic aorta was removed, cleaned of adherent fat and connective tissue and then cut into 3-mm ring segments; from tissue; host or cells: rabbit thoracic aorta rings, endothelium removed
T1 sequence (P34976 1-359): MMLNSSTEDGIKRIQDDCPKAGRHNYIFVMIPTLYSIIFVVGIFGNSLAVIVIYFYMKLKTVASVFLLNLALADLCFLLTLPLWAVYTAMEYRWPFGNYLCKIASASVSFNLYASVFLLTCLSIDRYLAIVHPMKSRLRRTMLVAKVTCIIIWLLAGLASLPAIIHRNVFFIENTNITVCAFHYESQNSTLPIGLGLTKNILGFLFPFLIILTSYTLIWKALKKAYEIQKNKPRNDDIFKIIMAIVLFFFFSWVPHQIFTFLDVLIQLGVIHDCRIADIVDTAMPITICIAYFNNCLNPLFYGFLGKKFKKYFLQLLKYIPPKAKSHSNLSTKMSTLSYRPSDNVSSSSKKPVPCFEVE
Method: The compounds of the invention were tested for antagonist activity in rabbit aortic rings. Male New Zealand white rabbits (2-2.5 kg) were sacrificed using an overdose of pentobarbital and exsanguinated via the carotid arteries. The thoracic aorta was removed, cleaned of adherent fat and connective tissue and then cut into 3-mm ring segments. The endothelium was removed from the rings by gently sliding a rolled-up piece of filter paper into the vessel lumen. The rings were then mounted in a water-jacketed tissue bath, maintained at 37° C., between moveable and fixed ends of a stainless steel wire with the moveable end attached to an FT03 Grass transducer coupled to a Model 7D Grass Polygraph for recording isometric force responses. […] The preparations were equilibrated for one hour before approximately one gram of passive tension was placed on the rings. Angiotensin II concentration-response curves were then recorded (3×10^-10 to 1×10^-5 M). Each concentration of AII was allowed to elicit its maximal contraction, and then AII was washed out repeatedly for 30 minutes before rechallenging with a higher concentration of AII. Aorta rings were exposed to the test antagonist at 10^-5 M for 5 minutes before challenging with AII. Adjacent segments of the same aorta ring were used for all concentration-response curves in the presence or absence of the test antagonist. […] The pA2 value is the concentration of the antagonist which increases the EC50 value for AII by a factor of two. Each test antagonist was evaluated in aorta rings from two rabbits.

[2] = read-out: pA2 (first of two values) (converted)
[3] = read-out: pA2 (second of two values) (converted)

IC50 [1] [nM] | Kb (rabbit aortic rings; [2]) [nM] | Kb (rabbit aortic rings; [3]) [nM] | Compound
310 | 214 | – | CCCCn1nc(C=O)nc1Cc1ccc(-c2ccccc2-c2nnn[nH]2)nc1 [Example 30, 5-[2-[5-[[1-butyl-3-formyl-1H-1,2,4-triazol-5-yl]methyl]-2-pyridinyl]phenyl]-1H-tetrazole]
59 | – | – | CCCCn1nc(C(C)(OC)OC)nc1Cc1ccc(-c2ccccc2-c2nnn[nH]2)nc1 [Example 33, 5-[2-[5-[[1-butyl-3-(1,1-dimethoxyethyl)-1H-1,2,4-triazol-5-yl]methyl]-2-pyridinyl]phenyl]-1H-tetrazole]
28 | – | – | CCCCn1nc(C(F)CCC)nc1Cc1ccc(-c2ccccc2-c2nnn[nH]2)nc1 (stereo not shown) [Example 12, 5-[2-[5-[[1-butyl-3-(1-fluorobutyl)-1H-1,2,4-triazol-5-yl]methyl]-2-pyridinyl]phenyl]-1H-tetrazole]
380 | 617 | 282 | CCCn1nc(C(F)F)nc1Cc1ccc(-c2ccccc2-c2nnn[nH]2)nc1 [Example 13, 5-[2-[5-[(1-propyl-3-difluoromethyl-1H-1,2,4-triazol-5-yl)methyl]-2-pyridinyl]phenyl]-1H-tetrazole]
410 | 126 | 66.1 | CCCn1nc(C(C)(F)F)nc1Cc1ccc(-c2ccccc2-c2nnn[nH]2)nc1 [Example 16, 5-[2-[5-[[1-propyl-3-(1,1-difluoroethyl)-1H-1,2,4-triazol-5-yl]methyl]-2-pyridinyl]phenyl]-1H-tetrazole]
70 | 70.8 | 91.2 | CCCCn1nc(C(=O)NC)nc1Cc1ccc(-c2ccccc2-c2nnn[nH]2)nc1 [Example 23, 5-[2-[5-[[1-butyl-3-(N-methylamido)-1H-1,2,4-triazol-5-yl]methyl]-2-pyridinyl]phenyl]-1H-tetrazole]
1100 | 166 | – | CCCCc1nc(Cc2ccc(-c3ccccc3-c3nnn[nH]3)nc2)n(CC(C)(C)C)n1 [Example 35, 5-[2-[5-[(1-neopentyl-3-butyl-1H-1,2,4-triazol-5-yl)methyl]-2-pyridinyl]phenyl]-1H-tetrazole]
420 | 20.4 | 26.3 | CCCCn1nc(C(F)(F)CC)nc1Cc1ccc(-c2ccccc2-c2nnn[nH]2)nc1 [Example 19, 5-[2-[5-[[1-butyl-3-(1,1-difluoropropyl)-1H-1,2,4-triazol-5-yl]methyl]-2-pyridinyl]phenyl]-1H-tetrazole]
78 | 9.33 | 21.9 | CCCCCc1nc(Cc2ccc(-c3ccccc3-c3nnn[nH]3)nc2)n(CCCC)n1 [Example 7, 5-[2-[5-[(1-butyl-3-pentyl-1H-1,2,4-triazol-5-yl)methyl]-2-pyridinyl]phenyl]-1H-tetrazole]
17 | 17.4 | 10.7 | CCCCn1nc(CCc2ccccc2)nc1Cc1ccc(-c2ccccc2-c2nnn[nH]2)nc1 [Example 2, 5-[2-[5-[[1-butyl-3-(2-phenylethyl)-1H-1,2,4-triazol-5-yl]methyl]-2-pyridinyl]phenyl]-1H-tetrazole]
64 | 13.5 | 19.5 | CCCCn1nc(C(=O)CCC)nc1Cc1ccc(-c2ccccc2-c2nnn[nH]2)nc1 [Example 11, 5-[2-[5-[[1-butyl-3-(1-oxobutyl)-1H-1,2,4-triazol-5-yl]methyl]-2-pyridinyl]phenyl]-1H-tetrazole]
370 | 83.2 | 77.6 | CCCn1nc(C(F)(F)CC)nc1Cc1ccc(-c2ccccc2-c2nnn[nH]2)nc1 [Example 18, 5-[2-[5-[[1-propyl-3-(1,1-difluoropropyl)-1H-1,2,4-triazol-5-yl]methyl]-2-pyridinyl]phenyl]-1H-tetrazole]
26 | 38.9 | 14.1 | CCCCn1nc(C(OCCC)OCCC)nc1Cc1ccc(-c2ccccc2-c2nnn[nH]2)nc1 [Example 28, 5-[2-[5-[[1-butyl-3-dipropoxymethyl-1H-1,2,4-triazol-5-yl]methyl]-2-pyridinyl]phenyl]-1H-tetrazole]
90 | 32.4 | 120 | CCCCn1nc(C(=O)NC(C)(C)C)nc1Cc1ccc(-c2ccccc2-c2nnn[nH]2)nc1 [Example 24, 5-[2-[5-[[1-butyl-3-(N-tertbutylamido)-1H-1,2,4-triazol-5-yl]methyl]-2-pyridinyl]phenyl]-1H-tetrazole]
180 | 51.3 | 95.5 | CCCn1nc(C(OC)OC)nc1Cc1ccc(-c2ccccc2-c2nnn[nH]2)nc1 [Example 25, 5-[2-[5-[[1-propyl-3-dimethoxymethyl-1H-1,2,4-triazol-5-yl]methyl]-2-pyridinyl]phenyl]-1H-tetrazole]
97 | 6.46 | 4.17 | CCCCn1nc(/C=C/c2cccs2)nc1Cc1ccc(-c2ccccc2-c2nnn[nH]2)nc1 [Example 5, 5-[2-[5-[[1-butyl-3-[2-(2-thienyl)ethenyl]-1H-1,2,4-triazol-5-yl]methyl]-2-pyridinyl]phenyl]-1H-tetrazole]
86 | 25.1 | 72.4 | CCCCCn1nc(CCCC)nc1Cc1ccc(-c2ccccc2-c2nnn[nH]2)nc1 [Example 6, 5-[2-[5-[(1-pentyl-3-butyl-1H-1,2,4-triazol-5-yl)methyl]-2-pyridinyl]phenyl]-1H-tetrazole]
530 | – | 603 | CCCCc1nc(Cc2ccc(-c3ccccc3-c3nnn[nH]3)nc2)n(CC(CC)CC)n1 [Example 8, 5-[2-[5-[[1-(2-ethylbutyl)-3-butyl-1H-1,2,4-triazol-5-yl]methyl]-2-pyridinyl]phenyl]-1H-tetrazole]
420 | 38 | 178 | CCCCn1nc(C(F)F)nc1Cc1ccc(-c2ccccc2-c2nnn[nH]2)nc1 [Example 14, 5-[2-[5-[(1-butyl-3-difluoromethyl-1H-1,2,4-triazol-5-yl)methyl]-2-pyridinyl]phenyl]-1H-tetrazole]
88 | 28.8 | 33.9 | CCCCn1nc(C(OC(C)C)OC(C)C)nc1Cc1ccc(-c2ccccc2-c2nnn[nH]2)nc1 [Example 29, 5-[2-[5-[[1-butyl-3-diisopropoxymethyl-1H-1,2,4-triazol-5-yl]methyl]-2-pyridinyl]phenyl]-1H-tetrazole]
160 | 26.9 | 18.2 | CCCCn1nc(C(C)(F)F)nc1Cc1ccc(-c2ccccc2-c2nnn[nH]2)nc1 [Example 17, 5-[2-[5-[[1-butyl-3-(1,1-difluoroethyl)-1H-1,2,4-triazol-5-yl]methyl]-2-pyridinyl]phenyl]-1H-tetrazole]
390 | – | – | CCCCn1nc(C(C)=O)nc1Cc1ccc(-c2ccccc2-c2nnn[nH]2)nc1 [Example 34, 5-[2-[5-[[1-butyl-3-(1-oxoethyl)-1H-1,2,4-triazol-5-yl]methyl]-2-pyridinyl]phenyl]-1H-tetrazole]

Compound | IC50 [1] [nM] | Kb (rabbit aortic rings; [2]) [nM] | Kb (rabbit aortic rings; [3]) [nM]
5-[2-[5-[[1-ethyl-3-(1,1-difluoroethyl)-1H-1,2,4-triazol-5-yl]methyl]-2-pyridinyl]phenyl]-1H-tetrazole [Example 15] | 1700 | – | –
